Assay results reported in US6358885B1, “Substituted phenylheterocyclic herbicides” (Mississippi State University, priority 1992, dated 2002).

Tests used:
[1] = tested on: barley; test: Test B preemergence/postemergence greenhouse plant response rating 0 to 10; type: in vivo, Hordeum vulgare; settings: 0 to 10 scale
How it was run: (§1)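 Test chemicals, dissolved in a non-phytotoxic solvent, were applied to soil at planting and, at the same time, over foliage of seedlings at the one to four leaf stage.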

[2] = tested on: barnyardgrass; test: as above; type: in vivo, Echinochloa crus-galli; settings: 0 to 10 scale
How it was run: as §1

[3] = tested on: blackgrass; test: as above; type: in vivo, Alopecurus myosuroides; settings: 0 to 10 scale
How it was run: as §1

[4] = tested on: chickweed; test: as above; type: in vivo, Stellaria media; settings: 0 to 10 scale
How it was run: as §1

[5] = tested on: corn; test: as above; type: in vivo, Zea mays; settings: 0 to 10 scale
How it was run: as §1

[6] = tested on: sorghum; test: as above; type: in vivo, Sorghum bicolor; settings: 0 to 10 scale
How it was run: as §1

[7] = tested on: sugar beet; test: as above; type: in vivo, Beta vulgaris; settings: 0 to 10 scale
How it was run: as §1

[8] = tested on: velvetleaf; test: as above; type: in vivo, Abutilon theophrasti; settings: 0 to 10 scale
How it was run: as §1

[9] = tested on: purple nutsedge; test: as above; type: in vivo, Cyperus rotundus; settings: 0 to 10 scale
How it was run: as §1

[10] = tested on: bedstraw; test: Test C preemergence/postemergence greenhouse plant response rating 0 to 100; type: in vivo, Galium aparine; settings: POSTEMERGENCE
How it was run: (§2)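 Compounds in non-phytotoxic solvent went onto sandy loam before emergence (seeded one day earlier) or onto plants at the one-to-four leaf stage. Duck salad was treated via flood water (~2.5 cm, maintained) over silt loam.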

[11] = tested on: corn; test: as above; type: in vivo, Zea mays; settings: POSTEMERGENCE
How it was run: as §2

[12] = tested on: crabgrass; test: as above; type: in vivo, Digitaria sanguinalis; settings: POSTEMERGENCE
How it was run: as §2

[13] = tested on: morningglory; test: as above; type: in vivo, Ipomoea hederacea; settings: POSTEMERGENCE
How it was run: as §2

[14] = tested on: rape; test: as above; type: in vivo, Brassica napus; settings: POSTEMERGENCE
How it was run: as §2

[15] = tested on: ryegrass; test: as above; type: in vivo, Lolium multiflorum; settings: POSTEMERGENCE
How it was run: as §2

[16] = tested on: wheat; test: as above; type: in vivo, Triticum aestivum; settings: POSTEMERGENCE
How it was run: as §2

[17] = tested on: wild oat; test: as above; type: in vivo, Avena fatua; settings: POSTEMERGENCE
How it was run: as §2

[18] = tested on: rice; test: Test C flood test plant response rating 0 to 100; type: in vivo, Oryza sativa
How it was run: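 Compounds in non-phytotoxic solvent applied preemergence to sandy loam one day after planting, postemergence at the 1–4 leaf stage, or to ~2.5 cm floodwater over silt loam.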

In the case of `COCN1C(=O)COc2cc(F)c(-c3nn4c(c3Cl)CCCC4)cc21` [Compound 55], the “Plant response rating, Barley” value ([1]; POSTEMERGENCE, Rate 10 g/ha) is reported as 5, the “Plant response rating, Barley” value ([1]; POSTEMERGENCE, Rate 50 g/ha) is reported as 4 and the “Plant response rating, Barley” value ([1]; PREEMERGENCE, Rate 10 g/ha) is reported as 0. For the same compound, the “Plant response rating, Barley” value ([1]; PREEMERGENCE, Rate 50 g/ha) was 3, the “Plant response rating, Barnyardgrass” value ([2]; POSTEMERGENCE, Rate 10 g/ha) was 2 and the “Plant response rating, Barnyardgrass” value ([2]; POSTEMERGENCE, Rate 50 g/ha) was 6. For the same compound, the “Plant response rating, Barnyardgrass” value ([2]; PREEMERGENCE, Rate 10 g/ha) was 0, the “Plant response rating, Barnyardgrass” value ([2]; PREEMERGENCE, Rate 50 g/ha) was 6 and the “Plant response rating, Blackgrass” value ([3]; POSTEMERGENCE, Rate 10 g/ha) was 5. The “Plant response rating, Blackgrass” value ([3]; POSTEMERGENCE, Rate 50 g/ha) was 7, the “Plant response rating, Blackgrass” value ([3]; PREEMERGENCE, Rate 10 g/ha) was 3 and the “Plant response rating, Blackgrass” value ([3]; PREEMERGENCE, Rate 50 g/ha) was 7. The “Plant response rating, Chickweed” value ([4]; POSTEMERGENCE, Rate 10 g/ha) was 9, the “Plant response rating, Chickweed” value ([4]; POSTEMERGENCE, Rate 50 g/ha) was 10 and the “Plant response rating, Chickweed” value ([4]; PREEMERGENCE, Rate 10 g/ha) was 9. For the same compound, the “Plant response rating, Chickweed” value ([4]; PREEMERGENCE, Rate 50 g/ha) was 10, the “Plant response rating, Corn” value ([5]; POSTEMERGENCE, Rate 10 g/ha) was 3 and the “Plant response rating, Corn” value ([5]; POSTEMERGENCE, Rate 50 g/ha) was 5. For the same compound, the “Plant response rating, Corn” value ([5]; PREEMERGENCE, Rate 50 g/ha) was 1, the “Plant response rating, Sorghum” value ([6]; POSTEMERGENCE, Rate 10 g/ha) was 3 and the “Plant response rating, Sorghum” value ([6]; POSTEMERGENCE, Rate 50 g/ha) was 4. The “Plant response rating, Sorghum” value ([6]; PREEMERGENCE, Rate 50 g/ha) was 0, the “Plant response rating, Sugar beet” value ([7]; POSTEMERGENCE, Rate 10 g/ha) was 10 and the “Plant response rating, Sugar beet” value ([7]; POSTEMERGENCE, Rate 50 g/ha) was 10. For the same compound, the “Plant response rating, Sugar beet” value ([7]; PREEMERGENCE, Rate 50 g/ha) was 10, the “Plant response rating, Velvetleaf” value ([8]; POSTEMERGENCE, Rate 10 g/ha) was 10 and the “Plant response rating, Velvetleaf” value ([8]; POSTEMERGENCE, Rate 50 g/ha) was 9. For the same compound, the “Plant response rating, Velvetleaf” value ([8]; PREEMERGENCE, Rate 50 g/ha) was 10, the “Plant response rating, Nutsedge” value ([9]; POSTEMERGENCE, Rate 10 g/ha) was 2 and the “Plant response rating, Nutsedge” value ([9]; POSTEMERGENCE, Rate 50 g/ha) was 2. For the same compound, the “Plant response rating, Nutsedge” value ([9]; PREEMERGENCE, Rate 50 g/ha) was 0, the “Plant response rating, Bedstraw” value ([10]; 62 g/ha, 0 to 100 scale) was 100 and the “Plant response rating (0 to 100), Bedstraw” value ([10]; Rate 1 g/ha) was 30. The “Plant response rating (0 to 100), Bedstraw” value ([10]; Rate 4 g/ha) was 90, the “Plant response rating (0 to 100), Bedstraw” value ([10]; Rate 16 g/ha) was 100 and the “Plant response rating, Corn” value ([11]; 62 g/ha, 0 to 100 scale) was 50. For the same compound, the “Plant response rating (0 to 100), Corn” value ([11]; Rate 1 g/ha) was 30, the “Plant response rating (0 to 100), Corn” value ([11]; Rate 4 g/ha) was 40 and the “Plant response rating (0 to 100), Corn” value ([11]; Rate 16 g/ha) was 50. For the same compound, the “Plant response rating, Crabgrass” value ([12]; 62 g/ha, 0 to 100 scale) was 40, the “Plant response rating (0 to 100), Crabgrass” value ([12]; Rate 1 g/ha) was 10 and the “Plant response rating (0 to 100), Crabgrass” value ([12]; Rate 4 g/ha) was 10. The “Plant response rating (0 to 100), Crabgrass” value ([12]; Rate 16 g/ha) was 30, the “Plant response rating, Morningglory” value ([13]; 62 g/ha, 0 to 100 scale) was 100 and the “Plant response rating (0 to 100), Morningglory” value ([13]; Rate 1 g/ha) was 80. For the same compound, the “Plant response rating (0 to 100), Morningglory” value ([13]; Rate 4 g/ha) was 100, the “Plant response rating (0 to 100), Morningglory” value ([13]; Rate 16 g/ha) was 100 and the “Plant response rating, Rape” value ([14]; 62 g/ha, 0 to 100 scale) was 100. For the same compound, the “Plant response rating (0 to 100), Rape” value ([14]; Rate 1 g/ha) was 60, the “Plant response rating (0 to 100), Rape” value ([14]; Rate 4 g/ha) was 100 and the “Plant response rating (0 to 100), Rape” value ([14]; Rate 16 g/ha) was 100. The “Plant response rating Ryegrass” value ([15]; 62 g/ha, 0 to 100 scale) was 60, the “Plant response rating (0 to 100), Ryegrass” value ([15]; Rate 1 g/ha) was 10 and the “Plant response rating (0 to 100), Ryegrass” value ([15]; Rate 4 g/ha) was 30. For the same compound, the “Plant response rating (0 to 100), Ryegrass” value ([15]; Rate 16 g/ha) was 40, the “Plant response rating, Wheat” value ([16]; 62 g/ha, 0 to 100 scale) was 60 and the “Plant response rating (0 to 100), Wheat” value ([16]; Rate 1 g/ha) was 30. For the same compound, the “Plant response rating (0 to 100), Wheat” value ([16]; Rate 4 g/ha) was 40, the “Plant response rating (0 to 100), Wheat” value ([16]; Rate 16 g/ha) was 50 and the “Plant response rating, Wild oat” value ([17]; 62 g/ha, 0 to 100 scale) was 60. For the same compound, the “Plant response rating (0 to 100), Wild oat” value ([17]; Rate 1 g/ha) was 20, the “Plant response rating (0 to 100), Wild oat” value ([17]; Rate 4 g/ha) was 30 and the “Plant response rating (0 to 100), Wild oat” value ([17]; Rate 16 g/ha) was 40. The “Plant response rating (0 to 100), Rice Japonica” value ([18]; POSTEMERGENCE section, flood test, Rate 1 g/ha) was 10, the “Plant response rating (0 to 100), Rice Japonica” value ([18]; POSTEMERGENCE section, flood test, Rate 4 g/ha) was 30 and the “Plant response rating (0 to 100), Rice Japonica” value ([18]; Rate 16 g/ha, under POSTEMERGENCE head (flood test species)) was 70. For the same compound, the “Plant response rating Rice Japonica” value ([18]; flood test species listed under POSTEMERGENCE, 62 g/ha, 0 to 100 scale) was 90.
